{
  "source": "patent US20170274174A1",
  "about": "“SYSTEM AND METHOD FOR ADMINISTERING, MONITORING AND CONTROLLING BIOMIMETIC SLEEP” (THE GENERAL HOSPITAL CORPORATION, priority 2014, published 2017)",
  "note": "Where two headings read alike, the source gives them in different places.",
  "data": [
    {"smiles": "Cc1cccc([C@H](C)c2cnc[nH]2)c1C", "note": "[dexmedetomidine]", "values": [
      {"measurement": "EEG spectral dynamics / sleep state induced", "setting": "high-dose: about 0.9 to about 1.1 mcg/kg loading, about 0.80 to about 0.9 mcg/kg/hr maintenance, FIGS. 4A-4B", "value": "only slow-waves being induced"},
      {"measurement": "EEG spectral dynamics / sleep state induced", "setting": "low-dose: about 0.9 to about 1.1 mcg/kg loading, about 0.60 to about 0.7 mcg/kg/hr maintenance, FIGS. 3A-3B", "value": "spindles and slow-waves that can closely resemble stage N2 NREM sleep"}
    ]}
  ]
}
